Experimental data as given in patent US10450327B2, “Epidithiodioxopiperazine compound or its derivatives, and the use thereof” (priority 2011, dated 2019).

Tests used:
VEGFR2 and ERK = test: VEGF-induced signaling, immunoblot, PrxII knocked down HAECs; assay type: cell-based, human; conditions: 2 hours pretreatment, VEGF 10 minutes
Experimental: The cells were rinsed with an ice-cold phosphate buffered saline (PBS) solution and then lysed in an extraction buffer solution containing 20 mM Hepes (pH 7.0), 1% Triton X-100, 150 mM NaCl, 10% glycerol, 1 mM EDTA, 2 mM EGTA, 1 mM DTT, 5 mM Na3VO4, 5 mM NaF, 1 mM AEBSF, aprotinin (5 μg/ml), and leupeptin (5 μg/ml). After being centrifuged at 12,000×g, the purified cell extracts were used for immunoblotting. In order to adjust the loading, the membranes were stripped by shaking them for 30 minutes at 60° C. in 67 mM Tris (pH 6.7), 2% SDS, and 100 mM 2-mercaptoethanol solution, and reprobed with an appropriate pan antibody.
In addition, the regulatory effects of GT on the PDGFRβ- and VEGFR2-mediated signaling pathway were examined. The GT treatment in HASMCs was quite different from PDGF-induced tyrosine phosphorylation that was enhanced by the PrxII knockdown (FIG. 12a). […] Conversely, the GT treatment in HAECs restored the VEGF-dependent activation of VEGFR2 and ERK that had been diminished by the PrxII knockdown (FIG. 12b). The effects of GT in vascular cell fuction were further validated.
Lastly, the effects of GT, a representative ETP compound, on vascular cells were compared with the effects of other compounds known as anti-oxidant compounds such as N-acetylcysteine or butylated hydroxyanisole, and the results are shown in FIG. 33. Immunoblotting was performed by pretreating HAECs in which PrxII was knocked down by injecting siRNA with each compound at the concentrations indicated in the graphs for two hours, and then treating with VEGF for 10 minutes. […] These comparative experiments led the inventors of the present invention to conclude that the distinguished […] function of the ETP compounds is clearly due to the PrxII-analogous activity, and additionally to the special chemical property of the dithioketopiperazine ring.

[1] = test system: GSH / yeast glutathione reductase (GR) system; test: Peroxidase activity assay (hydrogen peroxide reduction), GSH/GR system; assay type: biochemical; conditions: 25 μM ETP compound, GSH 1 mM, GR 1 Unit
Experimental: (§1) The peroxidase activity assay for the epidithiodioxopiperazine derivatives according to the present invention (hereinafter, referred to as ETP compounds) was performed according to known methods [Korean Patent No. 10-0953326]. A standard peroxidase reaction for spectrophotometric assay was carried out using a 200 μl reaction mixture of 1 mM EDTA-containing 50 mM Hepes-NaOH buffer solution (pH 7.0) including 250 μM NADPH, 3 μM yeast thioredoxin (Trx), 1.5 μM yeast thioredoxin reductase (TR), 25 μM ETP compound and […] of hydrogen peroxide. For the comparison with a glutathione (GSH)-dependent peroxidase reaction, GSH (1 mM) and yeast glutathione reductase (GSH reductase; GR) (1 Unit) were added instead of yeast Trx and TR. Each reaction was initiated by adding hydrogen peroxide, and the NADPH oxidation was monitored for 12 minutes at 30° C. according to absorbance decrease at 340 nm using an Agilent UV8453 spectrophotometer (Hewlett Packard, USA). The initial reaction rate was calculated using the linear portion of the curve and expressed as the amount of NADPH oxidized per minute.
The chemical feature of the epidithiodioxopiperazine compound of the present invention or its derivatives is the intramolecular disulfide bridge present in the epidithiodioxopiperazine ring moiety. […]

[2] = test system: yeast thioredoxin (Trx) / yeast thioredoxin reductase (TR) system; test: Peroxidase activity assay (hydrogen peroxide reduction), Trx/TR system; assay type: biochemical
Experimental: as §1
The chemical feature of the epidithiodioxopiperazine compound of the present invention or its derivatives is the intramolecular disulfide bridge present in the epidithiodioxopiperazine ring moiety. Cellular peroxidase reduces hydrogen peroxide utilizing the electrons derived from NADPH via two electron-transfer routes, that is, Trx/TR or GSH/GR, therefore, spectrophotometric assay was performed for the hydrogen peroxide-reducing activity in the presence of each system, and the results are shown in FIGS. 1 to 5.

SK-MEL-28 (SK28) cells = test: Melanoma proliferation and migration assay, SK28; assay type: cell-based, human; conditions: 100 nM, 1 hour pretreatment
Experimental: The extent of cell proliferation was measured using a WST-1 cell proliferation assay kit (Roche Diagnostics, USA) according to the protocol of the manufacturer. The number of cells was expressed as an absorbance value at 450 nm averaged from 3 wells after subtracting the turbidity at 600 nm. The chemotactic transmigration assay was performed in a 24-well Transwell culture chamber (Costar; polycarbonate membrane insert with 8-μm pore size). The bottom of the insert was coated with gelatin B (1 mg/ml) and air-dried for 1 hour. Retroviruses or transfection complexes were treated to melanoma cells (6×10^3). After 24 hours, the infected or transfected melanoma cells were serum-starved for 18 hours. A 20% FBS solution was added to bottom chambers including a basal medium containing 0.5% BSA. The upper chamber wells were each filled with a basal medium including 0.5% BSA. The Transwell chamber was incubated for 12 hours in a 37° C./5% CO2 incubator. After the incubation, the non-migrating cells at the top of the filter were removed. The cells that migrated onto the bottom of filter were fixed and stained with 0.6% hematoxylin and 0.5% eosin. The stained cells were photographed and counted. The number of migrating cells was averaged from 3 wells. […]

SK-MEL28 melanoma cells = assay type: cell-based, human; conditions: at a concentration of 100 nM; tested 0, 100, 200, 500 and 1000 nM
Experimental: Specifically, after chaetocin and chetomin was treated with SK-MEL28 melanoma cells at different concentrations (0, 100, 200, 500 and 1000 nM), the cell viability was checked, and the result is shown in FIG. 54A.

B16F10 melanoma cells = test: Metastasis of B16F10 melanoma cells to lung in mouse; assay type: in vivo; conditions: i.p. 5 times over 10 days after i.v. injection of B16F10 cells
Experimental: After B16F10 cells were temporarily transfected with PrxII siRNA for 24 hours and trypsinized, the cells were resuspended in a Hank's balanced salt solution (HBSS). The cell suspension was injected by intravenous injection to a C57/BL6 mouse (1×10^6 cells per mouse). The mouse was sacrified after 10 days, and the lung was removed after transcardia perfusion-fixation with a heparinized saline solution including 3.7% formaldehyde. The removed lung was paraffin embedded and sectioned using a rotary microtome (Leica RM2255). Two serial tissue sections (4 μm in thickness) were stained with haematoxylin and eosin. The melanoma tumor nodules metastasized from the surface of the lung and the HE-stained tissue sections were counted. In order to verify the effects of gliotoxin (GT), chaetocin and chetomin, the melanoma cells were intravenously injected to the C57/BL6 mouse, and then gliotoxin (300 mg/kg) was intraperitoneally injected for 5 times over 10 days.

[3] = test system: human aortic endothelial cells (HAECs); test: Cytotoxicity (cell viability), HAECs; assay type: cell-based; conditions: compared with gliotoxin and A1 to A9
Experimental: (§2) Most ETP compounds have been known to be cytotoxic to animal cells. Accordingly, the inventors of the present invention determined a safe concentration range of the epidithiodioxopiperazine compound or its derivatives in vascular cells. For this, human aortic smooth muscle cells (HASMCs) and human aortic endothelial cells (HAECs) were pretreated for 2 hours with various concentrations of gliotoxin or chaetocin, and A1 to A9 that are ETP derivatives according to the present invention, and cultured in a fresh medium for 24 hours followed by cell viability assay (FIGS. 6 to 10).

NADPH oxidase (NOX) = test: NADPH oxidase activity assay (whole cell superoxide production); assay type: cell-based, human; conditions: HASMCs with PDGF-B and HAECs with VEGF-A; until concentrations increased up to 500 nM
Experimental: Whole cell superoxide production was measured using an enhanced luminescence system (Diogenes, National Diagnostics). For the assay, the serum-starved cells were pre-incubated with a 100 μl Diogene reagent at 37° C. for 5 minutes. After being stimulated by the indicated growth factor, chemiluminescence was detected every second for 10 minutes with a TD-20/20 Luminometer (Turner Biosystems).
When HASMCs and HAECs were stimulated with PDGF-B and VEGF-A, respectively, the NOX activity increased approximately twofold. […] Thus, it was seen that these ETP compounds function as hydrogen peroxide reductase capable of replacing PrxII in both vascular cells, but the mechanism was not the inhibition of hydrogen peroxide producer NOX.

[4] = test system: human aortic smooth muscle cells (HASMCs); test: Cytotoxicity (cell viability), HASMCs; assay type: cell-based; conditions: compared with gliotoxin and A1 to A9
Experimental: as §2

Q: Which “VEGF-dependent activation of VEGFR2 and ERK” value (VEGFR2 and ERK) does the source give for `COc1ccc(O)c(C(C)(C)C)c1` [butylated hydroxyanisole] here?
A: The value was “did not induce”.

Q: `CN1C(=O)[C@]2(Cc3cn([C@]45C[C@@]67SS[C@@](CO)(C(=O)N6[C@H]4Nc4ccccc45)N(C)C7=O)c4ccccc34)SS[C@@]1(CO)C(=O)N2C` [chetomin] was tested. Which “hydrogen peroxide-reducing activity in the presence of a GSH/GR system” value [1] did it give?
A: The value was 2.53 ± 0.79 nmol/min.

Q: What about the “activity in the presence of a Trx/TR system relative to the activity of GT” value [2] of the same compound?
A: The value was “approximately two-fold higher”.

Q: What about the “hydrogen peroxide-reducing activity in the presence of a Trx/TR system” value ([2]; 25 μM ETP compound, 30° C., NADPH oxidation at 340 nm) of the same compound?
A: The value was 8.62 ± 0.51 nmol/min.

Q: What about the “proliferation and migration responding to serum stimulation, SK28” value (SK-MEL-28 (SK28) cells) of the same compound?
A: The value was “effectively impeded”.

Q: What about the “toxicity (cell viability)” value (SK-MEL28 melanoma cells) of the same compound?
A: Its value is “toxicity was not shown”.

Q: And the “metastasis of B16F10 melanoma cells to lung (tumor nodules)” value (B16F10 melanoma cells)?
A: Its value is “significantly reduced”.

Q: How did the “VEGF-dependent activation of VEGFR2 and ERK” value (VEGFR2 and ERK) turn out when `CC(=O)N[C@@H](CS)C(=O)O` [N-acetylcysteine] was run?
A: The value was “did not induce”.

Q: What does the source list for `CN1C(=O)[C@@]23C[C@]4([C@]56C[C@@]78SS[C@@](CO)(C(=O)N7[C@H]5Nc5ccccc56)N(C)C8=O)c5ccccc5N[C@@H]4N2C(=O)[C@]1(CO)SS3` [chaetocin]?
A: relative toxicity to HAECs [3]: relatively less toxic; NOX activity (NADPH oxidase (NOX)): did not inhibit; toxicity (cell viability) (SK-MEL28 melanoma cells): toxicity was not shown; relative toxicity to HASMCs [4]: relatively less toxic
